Entries after “also recorded” stand apart in the source; their conditions may differ.
Tested on: blink reflex
Assay: Blink reflex response parameters in ADHD patients before and 1 hour after their prescribed ADHD medication versus non-ADHD controls (pilot study)
Format: in vivo, humans
Details: for Max closing velocity, effect of medication type (in words): compared to controls and participants before taking their ADHD medications; for Delta 30, Estimate of Fixed Effects / Excursions, Estimate of Fixed Effects / Initial Velocity, Estimate of Fixed Effects / Max Closing Velocity, Estimate of Fixed Effects / Differential Latency, Estimate of Fixed Effects: Model 3 mixed model by medication type; for Delta 30, Estimate of Fixed Effects / Excursions, Estimate of Fixed Effects / Initial Velocity, Estimate of Fixed Effects / Max Closing Velocity, Estimate of Fixed Effects / Differential Latency, Estimate of Fixed Effects / Max Closing Velocity, Estimate of Fixed Effects, further analysis: relative to Med_type = 4 (Control); for Differential Latency, Estimate of Fixed Effects: AMP n=20, ATX n=2, MPH n=2; for Max Closing Velocity, Estimate of Fixed Effects, further analysis: Model 3 with confounders hours of sleep, urine specific gravity and age

## COC(=O)C(c1ccccc1)C1CCCCN1 (stereo not drawn) [MPH, methylphenidate]
Model 3
  Delta 30, effect of medication type (in words): statistically significant
  Differential Latency, effect of medication type (in words): statistically significant
  Excursions, effect of medication type (in words): statistically significant
  Initial Velocity, effect of medication type (in words): statistically significant; also recorded: slight increase
  Max closing velocity, effect of medication type (in words): associated with an increase
Model 3 conclusion, ATX=2, MPH=2, AMP=20 participants
  Blink reflex parameters predictive for treatment type (in words): particularly predictive
  Delta 30, Estimate of Fixed Effects: −1.756
  Excursions, Estimate of Fixed Effects: 14.707
  Initial Velocity, Estimate of Fixed Effects: .578
  Max Closing Velocity, Estimate of Fixed Effects: 1.378
  Differential Latency, Estimate of Fixed Effects: −0.980
  Max Closing Velocity, Estimate of Fixed Effects, further analysis: 1.265

## CNCC[C@@H](Oc1ccccc1C)c1ccccc1 [ATX]
Model 3
  Delta 30, effect of medication type (in words): statistically significant
  Differential Latency, effect of medication type (in words): statistically significant
  Max closing velocity, effect of medication type (in words): associated with an increase
  Delta 30, Estimate of Fixed Effects: −4.184
  Excursions, Estimate of Fixed Effects: 13.866
  Initial Velocity, Estimate of Fixed Effects: .532
  Max Closing Velocity, Estimate of Fixed Effects: 2.659
  Differential Latency, Estimate of Fixed Effects: −2.456
  Max Closing Velocity, Estimate of Fixed Effects, further analysis: 2.277
